We go through 13 compounds from PubChem BioAssay (NCI).

Where “and” joins values, the source holds several entries; their conditions need not be identical. Identical values can stand only once.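 Briefly, cells in 96-well plates were exposed to five compound concentrations for 48 h, and endpoints were estimated by linear interpolation. At the GI50, growth is halved. TGI: total growth inhibition.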

Some test systems named below: M14 melanoma; U251 CNS; ACHN renal; CAKI-1 renal; NCI-H226 lung; SR leukemia; UACC-62 melanoma; RXF 393 renal; BT-549 breast; DU-145 prostate.
Assay in all cases: NCI-60 cell line screen, 48 h

As for `Cc1cc(C)c([O-])c(-[n+]2c(-c3ccccc3)cc(-c3ccccc3)cc2-c2ccccc2)c1`, the TGI with M14 melanoma came to 18.3 µM; in the assay on U251 CNS, 14.9 µM; in the assay on ACHN renal, 16.6 µM; with CAKI-1 renal it was 22.1 µM; in the assay with NCI-H226 lung it was 24.9 µM; in the assay with SR leukemia, 11.8 µM. Also, the TGI in the assay with UACC-62 melanoma is 12.5 µM; in the assay with RXF 393 renal it was 20.2 µM.

Turning to `Cc1ccc2c(-c3ccnc(Nc4cccc(C(F)(F)F)c4)n3)c(-c3ccccc3)nn2n1`, the GI50 is 10.5 µM in the assay on M14 melanoma; 10.3 µM in the assay with U251 CNS; 1.97 µM in the assay with ACHN renal; 2.83 µM in the assay on CAKI-1 renal; 6.01 µM with NCI-H226 lung; 15 µM in the assay with BT-549 breast. For the same compound, the figures for the GI50 in the assay with DU-145 prostate, in the assay with UACC-62 melanoma and in the assay on RXF 393 renal were 12.3 µM, 6.38 µM and 2.95 µM, respectively. The TGI was above 17.2 µM in the assay on M14 melanoma; above 25 µM in the assay with U251 CNS; above 25 µM in the assay with ACHN renal; above 25 µM in the assay with CAKI-1 renal; 17 µM in the assay on NCI-H226 lung; above 24 µM in the assay on BT-549 breast. The TGI in the assay on DU-145 prostate was 24.4 µM; in the assay with UACC-62 melanoma it was above 16.1 µM; in the assay with RXF 393 renal, 8.57 µM.

For the compound `O=C(CCl)N1CCN(c2ccccn2)CC1`, the TGI was 35.5 µM in the assay on M14 melanoma; 33.9 µM in the assay on U251 CNS; 61.2 µM in the assay with ACHN renal; 33.5 µM in the assay on CAKI-1 renal; above 100 µM in the assay on SR leukemia; above 100 µM in the assay with DU-145 prostate. The compound also had a TGI in the assay with RXF 393 renal of 41.6 µM.

Regarding `O=C1CC[C@@H](S(=O)(=O)c2ccccc2)[C@H](/C=C/c2ccccc2)O1`, the TGI with M14 melanoma, in the assay on U251 CNS, in the assay with ACHN renal, in the assay with NCI-H226 lung, in the assay with SR leukemia and with UACC-62 melanoma was above 100 µM each time. The compound further came in with a TGI in the assay on RXF 393 renal above 100 µM.

With `CCP(C)(=O)CC`, the TGI in the assay on M14 melanoma, in the assay with U251 CNS, with ACHN renal, with CAKI-1 renal, in the assay with NCI-H226 lung and in the assay with SR leukemia was above 100 µM in each case. Also, the TGI in the assay on UACC-62 melanoma and in the assay on RXF 393 renal was above 100 µM throughout.

Consider `NC(N)=NCCCC(Nc1c2ccccc2nc2ccccc12)C(=O)O` (centres undefined), for which the TGI in the assay with M14 melanoma, in the assay on U251 CNS, with ACHN renal, in the assay on CAKI-1 renal, with NCI-H226 lung and with SR leukemia was above 100 µM throughout. The compound also had a TGI with RXF 393 renal above 100 µM.

Regarding `O=C1NC(c2cccc3ccccc23)Nc2ccc(Cl)cc21` (centres undefined), the TGI with U251 CNS was 0.022 µM and 0.0266 µM; in the assay on ACHN renal it was 10.7 µM; in the assay with CAKI-1 renal it was 11.2 µM; with SR leukemia, 0.000654 µM; with DU-145 prostate it was 0.169 µM and 1.43 µM; in the assay with RXF 393 renal, 0.0261 µM. In addition, in the assay on CAKI-1 renal, the GI50 was 0.0109 µM.

With `C=C1C2CCCC1C1(S(C)(=O)=O)CCCCC21O` (centres undefined), the TGI with M14 melanoma, with U251 CNS, in the assay with ACHN renal, with CAKI-1 renal, with NCI-H226 lung and with SR leukemia was above 100 µM in each case. This compound returned a TGI in the assay on UACC-62 melanoma above 100 µM.

Turning to `COc1cc2c3c(n(CCCNCCCCN)c(=O)c2cc1OC)-c1cc2c(cc1C3=O)OCO2`, the GI50 in the assay on M14 melanoma was 9.19 µM; in the assay with U251 CNS, 0.234 µM; with ACHN renal, 0.163 µM; in the assay on NCI-H226 lung, 1.6 µM; in the assay with BT-549 breast, 2.43 µM; with DU-145 prostate it was 0.0764 µM. Further, the GI50 in the assay on UACC-62 melanoma was 2.1 µM; in the assay on RXF 393 renal it was 0.301 µM. Besides, the TGI was determined as 27.6 µM in the assay on M14 melanoma; 6.54 µM in the assay with U251 CNS; 16.6 µM in the assay on ACHN renal; 15 µM with CAKI-1 renal; 7.44 µM in the assay with NCI-H226 lung; 16.6 µM in the assay with BT-549 breast. The TGI with DU-145 prostate amounted to 5.16 µM; in the assay on UACC-62 melanoma it was 11.3 µM; with RXF 393 renal, 11.4 µM.

For the compound `Cc1c(C(=O)/C=C/c2ccc([N+](=O)[O-])cc2)[n+](=O)c2ccccc2n1[O-]`, the TGI with M14 melanoma, in the assay on U251 CNS, with ACHN renal, in the assay on CAKI-1 renal, with NCI-H226 lung and in the assay with SR leukemia was above 100 µM each time. Besides, the TGI in the assay on UACC-62 melanoma and with RXF 393 renal was above 100 µM each time.

Take `CCN(CC)CCOc1ccc(/C(=C(\C)Cc2ccc(OC)cc2)c2ccc(O)cc2)cc1`: the GI50 in the assay on U251 CNS is 1.63 µM; in the assay with ACHN renal, 1.66 µM; with CAKI-1 renal, 1.65 µM; with NCI-H226 lung, 1.86 µM; with SR leukemia, 1.39 µM; with DU-145 prostate it was 2.14 µM. For the same compound, the GI50 is 1.81 µM in the assay on UACC-62 melanoma and 1.51 µM with RXF 393 renal. In addition, the TGI with U251 CNS was 3.09 µM; with ACHN renal it was 3.1 µM; in the assay with CAKI-1 renal, 3.21 µM; in the assay on NCI-H226 lung, 4.26 µM; with SR leukemia it was 3.62 µM; with DU-145 prostate, 5 µM. Further, the figures for the TGI in the assay with UACC-62 melanoma and in the assay on RXF 393 renal were 3.32 µM and 2.91 µM, respectively.

Regarding `Cc1cc2c3c(nc4ccccc42)C(=O)c2cccnc2-c3n1`, the GI50 was 0.479 µM in the assay with M14 melanoma; 0.413 µM in the assay on U251 CNS; 0.0327 µM with ACHN renal; 0.404 µM with CAKI-1 renal; 0.942 µM in the assay on NCI-H226 lung; 1.15 µM in the assay with BT-549 breast. Further, the figures for the GI50 in the assay with DU-145 prostate, in the assay with UACC-62 melanoma and with RXF 393 renal were 0.3 µM, 0.284 µM and 1.17 µM, respectively. Moreover, the TGI with U251 CNS worked out at 6.93 µM; in the assay on ACHN renal, 1.45 µM; in the assay with CAKI-1 renal, 2.67 µM; in the assay with NCI-H226 lung, 3.26 µM; in the assay on BT-549 breast it was 2.41 µM; in the assay on DU-145 prostate it was 1.48 µM. In addition, the TGI was 0.936 µM in the assay with UACC-62 melanoma and 3.19 µM with RXF 393 renal.

With `O=C(CCl)N1CCN(c2ccccc2)CC1`, the TGI is 35.2 µM in the assay on M14 melanoma; 34.4 µM in the assay with U251 CNS; 41.1 µM in the assay with ACHN renal; 29.9 µM in the assay with CAKI-1 renal; above 100 µM with SR leukemia; above 100 µM with DU-145 prostate. For the same compound, the TGI in the assay with RXF 393 renal amounted to 35.2 µM.
